Measured values published in patent publication US8871753B2, “Macrocyclic compounds and their use as kinase inhibitors” (Incyte Corporation, priority 2008, dated 2014).
pIC50: −log10 of the molar value. Where a name gives a salt, the structure may show the parent alone. Read-outs that look alike come from different tables or passages of the source.

Legend:
Assay type in all cases: biochemical
[1] = biological target: T1, human JAK3 (a.a. 781-1124) (Homo sapiens, UniProt P52333); assay: In vitro JAK kinase assay (HTRF, phosphorylation of a biotinylated peptide), JAK3
T1 construct: JAK3 (a.a. 781-1124); His tag (N); made in house; host or cells: insect cells (baculovirus)
Procedure, shortened: (§1)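 Kinase reactions ran at room temperature for 1 h with ATP matched per isoform (JAK1 90 μM, JAK2 30 μM, JAK3 3 μM). After an EDTA stop, the phosphorylated biotin-peptide was read by HTRF using Eu-Py20 and SA-APC after 40 min binding.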

TYK2 = TYK2 (Homo sapiens, UniProt P29597); assay: TYK2 kinase inhibition (Table A1)
[2] = biological target: T2, human JAK2 (a.a. 828-1132) (Homo sapiens, UniProt O60674); assay: In vitro JAK kinase assay (HTRF, phosphorylation of a biotinylated peptide), JAK2
T2 construct: JAK2 (a.a. 828-1132); His tag (N); made in house; host or cells: insect cells (baculovirus)
Procedure, shortened: as §1

[3] = biological target: T3, human JAK1 (a.a. 837-1142) (Homo sapiens, UniProt P23458); assay: In vitro JAK kinase assay (HTRF, phosphorylation of a biotinylated peptide), JAK1; conditions: for pIC50: read-out: JAK1 IC50
T3 construct: human JAK1 (a.a. 837-1142); His tag (N); made in house; host or cells: insect cells (baculovirus)
Procedure, shortened: as §1

T3 sequence (P23458 849-1154): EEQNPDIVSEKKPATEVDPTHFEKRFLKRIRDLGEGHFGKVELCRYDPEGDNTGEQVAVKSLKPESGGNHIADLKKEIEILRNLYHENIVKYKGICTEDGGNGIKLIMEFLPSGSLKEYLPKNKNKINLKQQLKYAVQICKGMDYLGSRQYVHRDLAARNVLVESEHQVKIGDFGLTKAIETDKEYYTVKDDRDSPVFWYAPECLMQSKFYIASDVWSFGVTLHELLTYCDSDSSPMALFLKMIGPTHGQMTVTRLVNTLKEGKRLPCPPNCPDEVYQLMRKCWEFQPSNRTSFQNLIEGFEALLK
Chain of TYK2 (P29597 whole entry): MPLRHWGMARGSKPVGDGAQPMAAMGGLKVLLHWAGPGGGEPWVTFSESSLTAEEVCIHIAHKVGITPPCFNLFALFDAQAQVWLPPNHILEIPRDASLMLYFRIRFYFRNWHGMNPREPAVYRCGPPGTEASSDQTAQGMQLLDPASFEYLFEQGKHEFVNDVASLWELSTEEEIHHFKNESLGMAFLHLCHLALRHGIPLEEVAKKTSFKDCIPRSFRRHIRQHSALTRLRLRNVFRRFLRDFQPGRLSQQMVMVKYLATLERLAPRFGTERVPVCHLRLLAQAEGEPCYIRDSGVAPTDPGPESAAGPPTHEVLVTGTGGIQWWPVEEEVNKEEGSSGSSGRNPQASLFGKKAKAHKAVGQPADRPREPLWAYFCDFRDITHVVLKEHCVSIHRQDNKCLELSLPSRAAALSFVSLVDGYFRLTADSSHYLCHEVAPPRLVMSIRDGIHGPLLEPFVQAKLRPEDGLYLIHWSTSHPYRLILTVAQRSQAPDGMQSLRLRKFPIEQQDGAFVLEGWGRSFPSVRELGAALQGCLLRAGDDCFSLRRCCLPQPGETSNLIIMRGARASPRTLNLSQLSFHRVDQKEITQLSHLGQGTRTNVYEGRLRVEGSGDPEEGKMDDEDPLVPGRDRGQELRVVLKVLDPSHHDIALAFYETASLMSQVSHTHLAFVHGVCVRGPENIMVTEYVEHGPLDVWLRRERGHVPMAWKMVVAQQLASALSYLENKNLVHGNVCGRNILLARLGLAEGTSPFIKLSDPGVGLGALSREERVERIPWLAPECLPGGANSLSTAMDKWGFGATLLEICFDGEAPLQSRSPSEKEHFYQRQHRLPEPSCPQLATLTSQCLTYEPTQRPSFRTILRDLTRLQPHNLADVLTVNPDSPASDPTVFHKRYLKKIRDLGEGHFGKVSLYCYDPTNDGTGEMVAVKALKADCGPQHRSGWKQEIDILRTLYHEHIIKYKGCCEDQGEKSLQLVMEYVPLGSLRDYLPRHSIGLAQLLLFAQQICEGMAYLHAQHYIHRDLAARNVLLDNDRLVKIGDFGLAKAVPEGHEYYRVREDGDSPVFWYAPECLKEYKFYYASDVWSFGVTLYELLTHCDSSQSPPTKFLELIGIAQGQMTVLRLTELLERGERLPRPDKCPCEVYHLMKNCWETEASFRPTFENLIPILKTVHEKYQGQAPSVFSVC
T2 sequence (O60674 828-1132): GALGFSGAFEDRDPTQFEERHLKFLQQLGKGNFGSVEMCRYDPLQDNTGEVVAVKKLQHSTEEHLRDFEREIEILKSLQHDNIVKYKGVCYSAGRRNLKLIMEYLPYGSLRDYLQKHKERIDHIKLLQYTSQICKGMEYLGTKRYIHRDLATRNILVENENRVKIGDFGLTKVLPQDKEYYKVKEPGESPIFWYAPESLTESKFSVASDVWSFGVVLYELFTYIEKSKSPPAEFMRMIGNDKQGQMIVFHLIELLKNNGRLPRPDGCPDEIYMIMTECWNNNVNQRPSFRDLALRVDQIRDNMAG
T1 sequence (P52333 781-1124): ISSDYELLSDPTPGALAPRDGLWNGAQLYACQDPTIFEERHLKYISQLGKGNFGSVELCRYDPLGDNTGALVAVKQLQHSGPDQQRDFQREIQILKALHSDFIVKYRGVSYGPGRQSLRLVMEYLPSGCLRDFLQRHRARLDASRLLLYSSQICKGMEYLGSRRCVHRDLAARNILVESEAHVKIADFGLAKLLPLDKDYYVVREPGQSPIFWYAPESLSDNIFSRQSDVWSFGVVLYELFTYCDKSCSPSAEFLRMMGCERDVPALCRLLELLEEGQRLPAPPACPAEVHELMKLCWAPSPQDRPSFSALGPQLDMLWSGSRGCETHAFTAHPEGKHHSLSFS

Compound	pIC50 ([1]; Table D1)	pIC50 (TYK2; Table D1)	pIC50 ([2]; Table D1)	pIC50 ([3]; Table D1)	pIC50 [1]	pIC50 (TYK2)	pIC50 [2]	pIC50 [3]	IC50 ([3]; JAK1 IC50 (nM), Table D1)
O=C(CC1CCN(c2ccncc2)C1)Nc1ccc2cc1CCc1cncc(c1)Nc1ncc(Cl)c(n1)N2 (stereo not drawn) [Example D157, N-[6-Chloro-2,4,8,18,22-pentaazatetracyclo[14.3.1.1(3,7).1(9,13)]docosa-1(20),3(22),4,6,9(21),10,12,16,18-nonaen-12-yl]-2-(1-pyridin-4-ylpyrrolidin-3-yl)acetamide tris(trifluoroacetate)]	< 6.40	< 6.40	< 6.40	7.41	–	–	–	–	–
O=C(c1ccccn1)N1Cc2cccc(c2)Nc2ncc(Cl)c(n2)Nc2cccc1c2 [Example C23, 6-Chloro-14-(pyridin-2-ylcarbonyl)-2,4,8,14,22-pentaazatetracyclo[14.3.1.1(3,7).1(9,13)]docosa-1(20),3(22),4,6,9(21),10,12,16,18-nonaene]	–	–	–	–	< 5.00	5.95	6.55	6.79	–
O=C(CC1CN(c2nc3ccccc3s2)C1)Nc1ccc2cc1CCc1cncc(c1)Nc1ncc(Cl)c(n1)N2 [Example D138, 2-[1-(1,3-Benzothiazol-2-yl)azetidin-3-yl]-N-[6-chloro-2,4,8,18,22-pentaazatetracyclo[14.3.1.1(3,7).1(9,13)]docosa-1(20),3(22),4,6,9(21),10,12,16,18-nonaen-12-yl]acetamide tris(trifluoroacetate)]	< 6.00	6.30	7.02	7.92	–	–	–	–	–
O=C(c1cccnc1Cl)N1CCC(CCOc2ccc3cc2CCc2cncc(c2)Nc2ncc(Cl)c(n2)N3)CC1 [Example D179, 6-Chloro-12-(2-{1-[(2-chloropyridin-3-yl)carbonyl]piperidin-4-yl}ethoxy)-2,4,8,18,22-pentaazatetracyclo[14.3.1.1(3,7).1(9,13)]docosa-1(20),3(22),4,6,9(21),10,12,16,18-nonaene tris(trifluoroacetate)]	< 6.40	< 6.40	< 6.40	6.65	–	–	–	–	–
N#CC1(C(=O)N2CCN(C(=O)COc3ccc4cc3CCc3cncc(c3)Nc3ncc(Cl)c(n3)N4)CC2)CC1 [Example D267, 1-{[4-({[6-Chloro-2,4,8,18,22-pentaazatetracyclo[14.3.1.1(3,7).1(9,13)]docosa-1(20),3(22),4,6,9(21),10,12,16,18-nonaen-12-yl]oxy}acetyl)piperazin-1-yl]carbonyl}cyclopropanecarbonitrile bis(trifluoroacetate)]	< 6.40	< 6.40	6.52	7.08	–	–	–	–	–
O=C(CC1CN(C(=O)c2nc[nH]n2)C1)Nc1ccc2cc1CCc1cncc(c1)Nc1ncc(Cl)c(n1)N2 [Example D147, N-[6-Chloro-2,4,8,18,22-pentaazatetracyclo[14.3.1.1(3,7).1(9,13)]docosa-1(20),3(22),4,6,9(21),10,12,16,18-nonaen-12-yl]-2-[1-(1H-1,2,4-triazol-3-ylcarbonyl)azetidin-3-yl]acetamide bis(trifluoroacetate)]	< 6.00	6.40	7.07	7.59	–	–	–	–	–
CC(=O)N1CCC(CCOc2ccc3cc2CCc2cncc(c2)Nc2ncc(Cl)c(n2)N3)CC1 [Example D161, 12-[2-(1-Acetylpiperidin-4-yl)ethoxy]-6-chloro-2,4,8,18,22-pentaazatetracyclo[14.3.1.1(3,7).1(9,13)]docosa-1(20),3(22),4,6,9(21),10,12,16,18-nonaene bis(trifluoroacetate)]	< 6.40	< 6.40	6.56	–	–	–	–	–	85 nM
O=C(C[C@@H]1CCN(C(=O)Nc2ccccc2F)C1)Nc1ccc2cc1CCc1cncc(c1)Nc1ncc(Cl)c(n1)N2 [Example D135, (3S)-3-(2-{[6-Chloro-2,4,8,18,22-pentaazatetracyclo[14.3.1.1(3,7).1(9,13)]docosa-1(20),3(22),4,6,9(21),10,12,16,18-nonaen-12-yl]amino}-2-oxoethyl)-N-(2-fluorophenyl)pyrrolidine-1-carboxamide bis(trifluoroacetate)]	< 6.00	< 6.00	6.50	7.22	–	–	–	–	–
Cc1nc(CC(=O)Nc2ccc3cc2CCc2cccc(c2)Nc2ncc(Cl)c(n2)N3)cs1 [Example C38, N-[6-Chloro-2,4,8,22-tetraazatetracyclo[14.3.1.1(3,7).1(9,13)]docosa-1(20),3(22),4,6,9(21),10,12,16,18-nonaen-12-yl]-2-(2-methyl-1,3-thiazol-4-yl)acetamide trifluoroacetate]	–	–	–	–	5.97	7.41	7.33	7.43	–
O=C(c1cccnc1)N1CCC(CCOc2ccc3cc2CCc2cncc(c2)Nc2ncc(Cl)c(n2)N3)CC1 [Example D180, 6-Chloro-12-{2-[1-(pyridin-3-ylcarbonyl)piperidin-4-yl]ethoxy}-2,4,8,18,22-pentaazatetracyclo[14.3.1.1(3,7).1(9,13)]docosa-1(20),3(22),4,6,9(21),10,12,16,18-nonaene tris(trifluoroacetate)]	< 6.40	< 6.40	< 6.40	6.59	–	–	–	–	–
Cc1cc(C(=O)N2CCC(CC(=O)Nc3ccc4cc3CCc3cccc(c3)Nc3ncc(F)c(n3)N4)CC2)no1 [Example C52, N-[6-Fluoro-2,4,8,22-tetraazatetracyclo[14.3.1.1(3,7).1(9,13)]docosa-1(20),3(22),4,6,9(21),10,12,16,18-nonaen-12-yl]-2-{1-[(5-methylisoxazol-3-yl)carbonyl]piperidin-4-yl}acetamide trifluoroacetate]	–	–	–	–	< 6.70	< 6.70	< 6.70	< 6.70	–
C[N+]1(C)CCN(c2ccc3cc2CCc2cccc(c2)Nc2ncc(Cl)c(n2)N3)CC1 [Example D86, 4-[6-Chloro-2,4,8,22-tetraazatetracyclo[14.3.1.1(3,7).1(9,13)]docosa-1(20),3(22),4,6,9(21),10,12,16,18-nonaen-12-yl]-1,1-dimethylpiperazin-1-ium bis(trifluoroacetate)]	6.77	6.57	7.06	6.53	–	–	–	–	–
O=C(C[C@H]1CCN(c2nc3ccccc3s2)C1)Nc1ccc2cc1CCc1cncc(c1)Nc1ncc(Cl)c(n1)N2 [Example D136, 2-[(3R)-1-(1,3-Benzothiazol-2-yl)pyrrolidin-3-yl]-N-[6-chloro-2,4,8,18,22-pentaazatetracyclo[14.3.1.1(3,7).1(9,13)]docosa-1(20),3(22),4,6,9(21),10,12,16,18-nonaen-12-yl]acetamide tris(trifluoroacetate)]	< 6.00	6.97	7.28	8.18	–	–	–	–	–
Cc1oncc1C(=O)N1CCC(CCOc2ccc3cc2CCc2cncc(c2)Nc2ncc(Cl)c(n2)N3)CC1 [Example D178, 6-Chloro-12-(2-{1-[(5-methylisoxazol-4-yl)carbonyl]piperidin-4-yl}ethoxy)-2,4,8,18,22-pentaazatetracyclo[14.3.1.1(3,7).1(9,13)]docosa-1(20),3(22),4,6,9(21),10,12,16,18-nonaene bis(trifluoroacetate)]	< 6.40	< 6.40	< 6.40	6.58	–	–	–	–	–
O=C(OCc1ccccc1)N1CCC(CCNc2ccc3cc2CCc2cncc(c2)Nc2ncc(Cl)c(n2)N3)CC1 [Example D215, Benzyl 4-(2-{[6-chloro-2,4,8,18,22-pentaazatetracyclo[14.3.1.1(3,7).1(9,13)]docosa-1(20),3(22),4,6,9(21),10,12,16,18-nonaen-12-yl]amino}ethyl)piperidine-1-carboxylate]	< 6.40	6.56	7.36	7.89	–	–	–	–	–
N#Cc1ccccc1N1CCN(C(=O)COc2ccc3cc2CCc2cncc(c2)Nc2ncc(Cl)c(n2)N3)CC1 [Example D235, 2-[4-({[6-Chloro-2,4,8,18,22-pentaazatetracyclo[14.3.1.1(3,7).1(9,13)]docosa-1(20),3(22),4,6,9(21),10,12,16,18-nonaen-12-yl]oxy}acetyl)piperazin-1-yl]benzonitrile tris(trifluoroacetate)]	< 6.40	< 6.40	< 6.40	7.19	–	–	–	–	–
O=C(COc1ccc2cc1CCc1cncc(c1)Nc1ncc(Cl)c(n1)N2)N1CCN(c2ncccn2)CC1 [Example D233, 6-Chloro-12-[2-oxo-2-(4-pyrimidin-2-ylpiperazin-1-yl)ethoxy]-2,4,8,18,22-pentaazatetracyclo[14.3.1.1(3,7).1(9,13)]docosa-1(20),3(22),4,6,9(21),10,12,16,18-nonaene tris(trifluoroacetate)]	< 6.40	< 6.40	< 6.40	7.00	–	–	–	–	–
CCS(=O)(=O)N1CCN(C(=O)COc2ccc3cc2CCc2cncc(c2)Nc2ncc(Cl)c(n2)N3)CC1 [Example D263, 6-Chloro-12-{2-[4-(ethylsulfonyl)piperazin-1-yl]-2-oxoethoxy}-2,4,8,18,22-pentaazatetracyclo[14.3.1.1(3,7).1(9,13)]docosa-1(20),3(22),4,6,9(21),10,12,16,18-nonaene bis(trifluoroacetate)]	< 6.40	< 6.40	6.74	7.10	–	–	–	–	–
